This note sets out measurements from PMC11318101, “Fragment-Based Screen of SARS-CoV-2 Papain-like Protease (PL^pro)” (ACS Medicinal Chemistry Letters, 2024).

The test deals with SARS-CoV-2 PLPro (full-length, intact C111) (Severe acute respiratory syndrome coronavirus 2, UniProt P0DTD1, C1833S). The format is biochemical.

As to `Cn1ncc2c(Nc3ccccc3Cl)ncnc21` [Fragment 7], the “inhibition at 1 mM” value is 30%.
Consider `CC(C)c1cc(O)n2ncc(-c3ccccc3)c2n1` [Fragment 8], for which the “inhibition at 1 mM” value is on record as 62%.
Turning to `Cc1cc(Nc2ccccc2C)n2ncnc2n1` [Fragment 9], the “inhibition at 1 mM” value is listed as 5%.
In the case of `Cc1ccc(Nc2cc(C)nc3nncn23)c(C)c1` [Fragment 11], the “inhibition at 1 mM” value came out at 2%.
